Data as given in ChEMBL document CHEMBL1201862, “PubChem BioAssay data set” (2004).
Counter-ions that a name gives are not always drawn. Active and inactive are the calls of the source.

Tests used:
[1] = HepG2 cell cytotoxicity, dose response, cytotoxicity control for non-replicating M. tuberculosis project (AID 489018); format: functional; conditions: Mycobacterium tuberculosis
[2] = THP-1 cell cytotoxicity, dose response, cytotoxicity control for non-replicating M. tuberculosis project (AID 489025); format: functional
[3] = Vero E6 cell cytotoxicity, dose response, cytotoxicity control for non-replicating M. tuberculosis project, secondary assay (AID 492998); format: functional, VeroE6; conditions: Vero C1008
[4] = biological target: T1, Microphthalmia-associated transcription factor (Homo sapiens, UniProt O75030); test: TRPM1 promoter luciferase signal decrease, dose response, MITF inhibitor project, cell-based, SK-MEL-5, cherry-picked, set 3 (AID 493073); format: functional
T1 sequence (O75030 whole entry): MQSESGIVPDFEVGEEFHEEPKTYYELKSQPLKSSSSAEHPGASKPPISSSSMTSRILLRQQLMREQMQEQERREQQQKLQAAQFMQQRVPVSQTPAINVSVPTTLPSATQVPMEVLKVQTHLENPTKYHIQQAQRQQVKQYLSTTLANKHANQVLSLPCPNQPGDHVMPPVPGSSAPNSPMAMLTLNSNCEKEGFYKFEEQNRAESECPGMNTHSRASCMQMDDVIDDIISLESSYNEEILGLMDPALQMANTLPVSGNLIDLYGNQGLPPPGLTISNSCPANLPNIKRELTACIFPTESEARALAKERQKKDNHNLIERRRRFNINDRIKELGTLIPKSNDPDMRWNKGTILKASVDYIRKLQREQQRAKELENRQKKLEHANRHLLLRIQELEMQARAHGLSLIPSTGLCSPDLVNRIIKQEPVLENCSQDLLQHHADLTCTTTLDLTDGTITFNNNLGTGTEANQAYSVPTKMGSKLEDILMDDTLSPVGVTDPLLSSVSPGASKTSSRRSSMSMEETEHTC

[5] = cells; format: functional
[6] = P. falciparum Dd2 growth inhibitors, dose response, SYBR Green, cherry-picked samples (AID 1159567); format: functional, cell-based
[7] = P. falciparum Dd2 growth inhibitors, dose response, SYBR Green, dry powder samples, set 9 (AID 1159568); format: functional, cell-based
[8] = P. falciparum ATP4 D1247Y mutant growth inhibitors, dose response, NITD609-resistant line, SYBR Green, dry powder (AID 1159571); format: functional, cell-based;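 further: parasites synchronized at ring stage by sorbitol before testing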
[9] = HepG2 cell cytotoxicity, dose response, cytotoxicity control, plate reader, dry powder samples (AID 1159569); format: functional, cell-based;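 further: inhibitor potency with signal falling toward the positive control level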
[10] = P. falciparum 3D7-ScDHODH growth inhibitors, dose response, SYBR Green, dry powder samples (AID 1159570); format: functional, cell-based;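 further: parasite growth measured after 72 hours of compound exposure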
[11] = P. falciparum Dd2 growth inhibitors, dose response, SYBR Green, dry powder samples (AID 1159566); format: functional, cell-based;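 further: potency for growth inhibition with lower SYBR green DNA signal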
[12] = biological target: Voltage-gated inwardly rectifying potassium channel KCNH2 (Homo sapiens, UniProt Q12809); conditions: Potency;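 further: confirmatory quantitative high-throughput screen measuring inhibition of hERG channel activity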
Chain of Voltage-gated inwardly rectifying potassium channel KCNH2 (Q12809 whole entry): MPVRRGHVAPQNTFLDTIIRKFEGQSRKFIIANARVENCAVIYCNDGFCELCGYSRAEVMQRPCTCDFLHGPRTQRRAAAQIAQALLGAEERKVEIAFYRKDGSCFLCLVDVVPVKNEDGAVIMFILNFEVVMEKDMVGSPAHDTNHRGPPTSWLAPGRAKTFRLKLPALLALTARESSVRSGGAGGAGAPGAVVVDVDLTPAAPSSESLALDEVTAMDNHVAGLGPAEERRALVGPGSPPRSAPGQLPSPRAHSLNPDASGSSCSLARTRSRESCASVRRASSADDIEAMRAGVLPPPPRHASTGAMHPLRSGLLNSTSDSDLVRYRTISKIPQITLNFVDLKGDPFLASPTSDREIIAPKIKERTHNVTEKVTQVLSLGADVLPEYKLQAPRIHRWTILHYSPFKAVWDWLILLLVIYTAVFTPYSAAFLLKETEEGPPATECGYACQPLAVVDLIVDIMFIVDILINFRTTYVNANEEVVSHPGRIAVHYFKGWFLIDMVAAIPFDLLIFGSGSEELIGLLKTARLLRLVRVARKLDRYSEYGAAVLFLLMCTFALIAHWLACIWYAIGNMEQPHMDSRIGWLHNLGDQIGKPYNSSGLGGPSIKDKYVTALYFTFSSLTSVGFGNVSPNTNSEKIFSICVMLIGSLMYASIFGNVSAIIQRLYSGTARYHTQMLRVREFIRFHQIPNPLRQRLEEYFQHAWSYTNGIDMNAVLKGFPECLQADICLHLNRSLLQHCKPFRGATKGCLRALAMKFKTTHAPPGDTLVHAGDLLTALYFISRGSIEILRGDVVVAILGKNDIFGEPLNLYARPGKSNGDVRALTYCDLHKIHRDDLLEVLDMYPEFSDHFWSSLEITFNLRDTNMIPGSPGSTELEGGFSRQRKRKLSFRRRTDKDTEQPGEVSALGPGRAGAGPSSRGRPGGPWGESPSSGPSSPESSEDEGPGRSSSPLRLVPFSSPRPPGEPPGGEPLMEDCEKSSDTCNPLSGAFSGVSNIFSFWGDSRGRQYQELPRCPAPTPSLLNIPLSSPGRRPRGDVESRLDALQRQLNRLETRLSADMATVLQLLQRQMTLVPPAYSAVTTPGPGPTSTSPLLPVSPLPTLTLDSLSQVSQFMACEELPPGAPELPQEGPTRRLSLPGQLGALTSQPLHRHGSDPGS

[13] = biological target: Cytochrome P450 2D6 (Homo sapiens, UniProt P10635);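 further: CYP2D6 member of a cytochrome P450 panel assay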
Chain of Cytochrome P450 2D6 (P10635 whole entry): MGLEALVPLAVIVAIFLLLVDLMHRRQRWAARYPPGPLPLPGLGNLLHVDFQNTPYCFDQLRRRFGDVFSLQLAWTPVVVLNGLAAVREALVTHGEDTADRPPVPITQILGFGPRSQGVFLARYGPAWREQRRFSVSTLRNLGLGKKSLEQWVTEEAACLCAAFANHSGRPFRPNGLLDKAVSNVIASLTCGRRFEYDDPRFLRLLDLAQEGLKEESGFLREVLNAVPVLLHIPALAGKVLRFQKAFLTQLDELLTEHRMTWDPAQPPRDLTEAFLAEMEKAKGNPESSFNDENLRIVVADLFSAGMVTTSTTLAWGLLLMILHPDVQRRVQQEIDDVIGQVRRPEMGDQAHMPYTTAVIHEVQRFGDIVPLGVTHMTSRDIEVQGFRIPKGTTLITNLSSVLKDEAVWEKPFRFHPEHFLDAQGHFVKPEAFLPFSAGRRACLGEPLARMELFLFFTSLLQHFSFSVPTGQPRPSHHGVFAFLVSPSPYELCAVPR

[14] = biological target: Cytochrome P450 3A4 (Homo sapiens, UniProt P08684);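 further: CYP3A4 tested as one member of a cytochrome P450 panel screen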
Chain of Cytochrome P450 3A4 (P08684 whole entry): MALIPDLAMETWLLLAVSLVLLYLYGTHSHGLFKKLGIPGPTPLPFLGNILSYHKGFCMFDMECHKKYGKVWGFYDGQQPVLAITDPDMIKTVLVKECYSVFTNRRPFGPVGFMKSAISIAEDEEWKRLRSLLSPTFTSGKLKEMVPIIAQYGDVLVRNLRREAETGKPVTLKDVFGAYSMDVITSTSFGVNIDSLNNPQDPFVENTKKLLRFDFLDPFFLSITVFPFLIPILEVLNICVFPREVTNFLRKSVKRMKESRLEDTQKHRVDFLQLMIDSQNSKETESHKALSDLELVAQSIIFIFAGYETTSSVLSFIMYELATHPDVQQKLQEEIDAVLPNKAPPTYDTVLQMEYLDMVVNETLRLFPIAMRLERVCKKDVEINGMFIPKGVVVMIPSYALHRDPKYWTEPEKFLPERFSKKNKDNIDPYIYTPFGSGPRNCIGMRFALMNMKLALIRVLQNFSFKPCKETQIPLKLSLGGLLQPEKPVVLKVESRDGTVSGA

[15] = biological target: T2, Short transient receptor potential channel 4 (Mus musculus, UniProt Q9QUQ5); test: mouse TRPC4 channel activators, dose response, cell-based, HEK293 TRPC4/mu-opioid, Fluo-4 calcium (AID 434937); format: functional
T2 sequence (Q9QUQ5 whole entry): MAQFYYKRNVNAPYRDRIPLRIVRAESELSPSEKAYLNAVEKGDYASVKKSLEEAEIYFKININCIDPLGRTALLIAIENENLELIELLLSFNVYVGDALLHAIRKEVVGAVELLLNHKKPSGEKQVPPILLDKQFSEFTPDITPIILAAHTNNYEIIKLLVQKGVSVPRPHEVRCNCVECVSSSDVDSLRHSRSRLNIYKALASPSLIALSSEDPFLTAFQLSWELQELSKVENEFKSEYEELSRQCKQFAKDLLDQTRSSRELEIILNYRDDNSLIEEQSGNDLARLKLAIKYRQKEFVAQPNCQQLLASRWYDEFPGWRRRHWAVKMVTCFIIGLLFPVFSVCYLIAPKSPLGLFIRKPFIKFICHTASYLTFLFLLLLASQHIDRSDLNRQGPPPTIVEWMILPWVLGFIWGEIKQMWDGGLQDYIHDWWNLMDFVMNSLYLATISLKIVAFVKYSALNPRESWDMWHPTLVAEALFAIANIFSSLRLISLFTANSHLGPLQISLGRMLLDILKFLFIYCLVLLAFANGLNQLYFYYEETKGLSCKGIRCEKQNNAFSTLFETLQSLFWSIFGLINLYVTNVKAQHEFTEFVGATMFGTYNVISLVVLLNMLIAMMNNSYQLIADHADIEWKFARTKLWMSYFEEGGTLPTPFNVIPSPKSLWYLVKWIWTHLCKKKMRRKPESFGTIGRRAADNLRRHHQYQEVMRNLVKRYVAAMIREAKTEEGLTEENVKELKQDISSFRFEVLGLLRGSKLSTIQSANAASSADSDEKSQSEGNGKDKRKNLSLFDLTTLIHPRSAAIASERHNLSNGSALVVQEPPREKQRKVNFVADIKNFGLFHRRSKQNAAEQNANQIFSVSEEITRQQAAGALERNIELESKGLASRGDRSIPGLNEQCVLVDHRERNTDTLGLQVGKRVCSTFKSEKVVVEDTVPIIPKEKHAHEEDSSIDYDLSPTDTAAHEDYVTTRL

[16] = biological target: Paired box protein Pax-8 (Homo sapiens, UniProt Q06710); test: inhibitors of PAX8-driven TPO luciferase reporter, dose response, RMG-I cells, cherry-pick (AID 687027); format: functional, cell-based;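 further: luciferase reporter driven by Pax8 target thyroperoxidase promoter measured by SteadyGlo luminescence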
Chain of Paired box protein Pax-8 (Q06710 whole entry): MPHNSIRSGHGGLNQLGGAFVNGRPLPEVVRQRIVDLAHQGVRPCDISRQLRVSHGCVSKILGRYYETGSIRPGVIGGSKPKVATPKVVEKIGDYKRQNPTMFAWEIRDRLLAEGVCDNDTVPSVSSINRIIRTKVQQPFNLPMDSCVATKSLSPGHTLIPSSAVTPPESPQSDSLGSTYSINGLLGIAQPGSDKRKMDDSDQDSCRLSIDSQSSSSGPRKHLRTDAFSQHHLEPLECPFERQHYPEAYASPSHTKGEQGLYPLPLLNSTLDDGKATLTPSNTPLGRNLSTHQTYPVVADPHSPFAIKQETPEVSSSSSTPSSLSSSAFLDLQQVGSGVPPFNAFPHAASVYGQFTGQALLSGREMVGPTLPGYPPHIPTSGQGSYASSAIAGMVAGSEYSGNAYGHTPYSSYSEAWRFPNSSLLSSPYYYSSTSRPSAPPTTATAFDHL

[17] = biological target: T3, Protein skinhead-1 (Caenorhabditis elegans, UniProt P34707); format: functional
T3 sequence (P34707 whole entry): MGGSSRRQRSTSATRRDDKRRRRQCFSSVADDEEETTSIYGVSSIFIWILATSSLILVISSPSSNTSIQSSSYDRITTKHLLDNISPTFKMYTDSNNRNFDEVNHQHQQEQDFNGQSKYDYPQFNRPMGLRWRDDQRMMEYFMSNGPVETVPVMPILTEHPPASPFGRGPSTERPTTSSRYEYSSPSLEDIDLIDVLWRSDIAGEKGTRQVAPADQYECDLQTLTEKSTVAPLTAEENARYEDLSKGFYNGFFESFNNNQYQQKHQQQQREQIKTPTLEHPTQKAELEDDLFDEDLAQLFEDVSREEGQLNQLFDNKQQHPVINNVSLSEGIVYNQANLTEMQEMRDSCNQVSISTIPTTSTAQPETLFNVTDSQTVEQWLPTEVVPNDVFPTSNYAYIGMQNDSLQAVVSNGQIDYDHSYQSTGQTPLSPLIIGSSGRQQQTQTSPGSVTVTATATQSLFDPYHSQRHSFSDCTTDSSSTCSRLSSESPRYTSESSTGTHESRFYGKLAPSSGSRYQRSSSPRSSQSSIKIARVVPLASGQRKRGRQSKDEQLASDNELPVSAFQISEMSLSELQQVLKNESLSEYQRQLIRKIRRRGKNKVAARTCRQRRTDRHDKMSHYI

[18] = non-specific cell cytotoxicity, dose response, cytotoxicity control for PAX8 inhibitor project, plate reader, dry powder samples (AID 743021); format: functional, cell-based
[19] = tested on: HEK293; test: inhibitors of LMP1-driven NF-kB reporter, dose response, cell-based, HEK293, luciferase, cherry-pick (AID 588343); format: functional; conditions: Homo sapiens

For `Cc1onc(-c2ccccc2)c1C(=O)N/N=C/c1ccc([N+](=O)[O-])s1`, the CC50 [1] was 18.8 µM (active), the CC50 [2] was 13.5 µM (active) and the CC50 [3] was 11.4 µM (active). The AC50 [4] was 5.35 µM (active) and the IC50 [5] was 14.9 µM (active).
With `C[C@H]1CN([C@@H](C)CO)C(=O)c2cc(/C=C/c3ccccc3)cnc2O[C@@H]1CN(C)C(=O)C1CCCCC1` the AC50 [6] was 0.54 µM (active), the AC50 [7] was 0.082 µM (active) and the AC50 [8] was 0.464 µM (active). The AC50 [9] was > 100 µM (inactive), the AC50 [10] was 0.905 µM (active) and the AC50 [11] was 0.291 µM (active).
In the case of `CC(C)NC(=O)N1[C@H](C#N)[C@H](c2ccc(C#CC3CCCCC3)cc2)[C@@H]1CO`, the AC50 [6] is reported as 0.99 µM (active), the AC50 [7] is reported as 0.148 µM (active) and the AC50 [8] is reported as 0.676 µM (active). The AC50 [9] was 28.6 µM (active), the AC50 [10] was 1.58 µM (active) and the AC50 [11] was 0.495 µM (active).
For `COc1ccc(-c2ccc3c(c2)[C@H]2[C@H](CCN2C(=O)C2CCCC2)[C@H](CO)N3C)cc1`, the AC50 [6] was 1.87 µM (active), the AC50 [8] was 1.97 µM (active) and the AC50 [9] was 16.1 µM (active). The AC50 [10] was 2.27 µM (active) and the AC50 [11] was 1.42 µM (active).
For `Cn1cnc2c(NC3CCCC3)ncnc21`, the AC50 [12] was 1.41 µM (inconclusive), the AC50 [13] was 20 µM (inconclusive) and the AC50 [14] was 25.1 µM (inconclusive).
With `Cc1ccc(-n2cc(CNCCc3nc(C)c[nH]3)c(-c3ccc(F)cc3)n2)cc1` the CC50 [1] was 16.7 µM (active), the CC50 [2] was 24.1 µM (active) and the CC50 [3] was 17.4 µM (active). The EC50 [15] was 6.68 µM (active) and the IC50 [5] was 11.5 µM (active).
With `O=c1cc(-c2ccccc2)oc2ccc3ccccc3c12` [BETA-NAPHTHOFLAVONE] the AC50 [16] was 5.9 µM (active), the IC50 [17] was > 100 µM (inactive) and the AC50 [18] was 29.2 µM (active). The AC50 [19] was 0.646 µM (active).
In the case of `CN(C)CCC(c1ccccc1)c1ccccn1` (stereo not given) [PHENIRAMINE MALEATE], the AC50 [12] is reported as 15.8 µM (inconclusive).
